Laboratory results as given in patent US5856333A, “Substituted camptothecin derivatives and process for their preparation” (Pharmacia & Upjohn S.p.A., priority 1995, dated 1999).
In brackets after ≈: the same amount, converted by molar mass.

Legend:
Topoisomerase I = details: cited from earlier work
cancer cells = details: both in vitro and in vivo; cited from earlier work
human albumin = details: biologically relevant levels of human albumin; cited from earlier work
[1] = human plasma, 2 hours after drug addition; cited from earlier work
[2] = tested on: L1210 murine leukemia cells; assay: evaluation of cytotoxic activity, method (a); assay type: cell-based; details: Mus musculus, 48 h at 37° C., 5% CO2, dose causing 50% inhibition of cell growth relative to untreated controls, 0.5% DMSO
Method: As an example, the activity of (E)-9-(2-methoxycarbonyl-ethenyl) camptothecin (internal code FCE 28681) and 9-(2-methoxycarbonyl-ethyl) camptothecin (internal code FCE 29559) were tested according to the following method (a).
The compounds were dissolved in dimethylsulfoxide (DMSO) at a final concentration of 0.5%.
Method (a): evaluation of cytotoxic activity
L1210 murine leukemia cells were grown in vitro as a floated cells in RPMI 1640 medium supplemented with 10% fetal calf serum, 1% L-glutamine 200 mM, 1% of B-mercaptoethanol 1 mM, 100 UI/ml penicillin and 100 μg streptomycin. For assaying the cytotoxic activity, exponentially growing cells were seeded at the concentration of 5×10^4 cells/ml and exposed to graded doses of the compounds under evaluation for 48 h at 37° C. in an humidified atmosphere of 5% CO2. The number of surviving cells was determined with a Coulter Counter; results are expressed as IC50 (dose causing 50% inhibition of cell growth in treated cultures relative to untreated controls after 48 h treatment) in this assay, (E)-9-(2-methoxycarbonyl-ethenyl) camptothecin (internal code FCE 28681) and 9-(2-methoxycarbonyl-ethyl) camptothecin (internal code FCE 29559) were tested and the obtained results are reported on Table 1 below.

| SMILES | antitumor activity by inhibition of Topoisomerase I (Topoisomerase I) | anticancer activity of the lactone versus the carboxylate form (cancer cells) | half-life of the biologically active form (human albumin) | percentage of drug converted to camptothecin carboxylate [1] | IC50 [2] [ng/mL] |
| --- | --- | --- | --- | --- | --- |
| CC[C@@]1(O)C(=O)OCc2c1cc1n(c2=O)Cc2cc3ccccc3nc2-1 [camptothecin] | potent antitumor activity | significantly greater for the lactone versus the carboxylate form | about 12 min. | greater than 99% |  |
| CC[C@@]1(O)C(=O)OCc2c1cc1n(c2=O)Cc2cc3c(CCC(=O)OC)cccc3nc2-1 [FCE 29559, 9-(2-methoxycarbonyl-ethyl)camptothecin] |  |  |  |  | 2.7 ± 0.5 (≈ 6.21 nM) |
| CC[C@@]1(O)C(=O)OCc2c1cc1n(c2=O)Cc2cc3c(/C=C/C(=O)OC)cccc3nc2-1 [FCE 28681, (E)-9-(2-methoxycarbonyl-ethenyl)camptothecin] |  |  |  |  | 3.3 ± 1.8 (≈ 7.63 nM) |
